From PubChem BioAssay (NCI) come the findings set out here.

“And” between values parts separate entries of the source, which are not always exact repeats. Equal values may be shown once.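 Cells were grown in 96-well plates and exposed to each compound for 48 hours at five concentrations; endpoints were interpolated linearly between bracketing concentrations, or set to the highest concentration if not reached. GI50 is the concentration that inhibits growth by half. At the TGI there is no net growth.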

Common to all, as to experiment: inhibition of tumour cell growth, NCI panel, 48 h
Test [1] relates to A549 NSCLC.
Test [2] concerns CAKI-1 renal.
The test system of test [3] is HCT-15 colon.
In test [4] the test system is HOP-62 NSCLC.
Test [5] concerns LOX IMVI melanoma.
In test [6] the test system is OVCAR-3 ovarian.
The subject of test [7] is RPMI-8226 leukemia.
Test [8] has as its system UACC-62 melanoma.
For test [9], the system named is BT-549 breast.

For the compound `CCOC(=O)CCCn1c(SC)nc2cc(-c3ccco3)[nH]c2c1=O`, the GI50 is > 100 µM in test [1]; 25.8 µM in test [2]; > 100 µM in test [3]; 37 µM in test [4]; 57.8 µM in [5]; 48.2 µM in test [6]. For the same compound, the values for the GI50 in [7] and in [8] were > 100 µM and 22.5 µM, respectively. Besides, the TGI in [1] was > 100 µM; in [2], 90.4 µM; in test [3], > 100 µM; in test [4], > 100 µM; in [5], > 100 µM; in [6] it was > 100 µM. Further, the TGI in test [7] was > 100 µM; in test [8], 68.3 µM.
Take `Cc1cccc(C)c1NC(=O)CCCC(=O)CC(=O)/C=C/c1ccccc1`: the TGI in test [1], in [2], in test [3], in test [5], in test [6] and in test [7] was > 100 µM in each case. The TGI in [8] is > 100 µM.
As to `c1ccc(C(=NNc2nc3ccccc3o2)c2ccccn2)nc1`, the GI50 is 0.108 µM in [1]; 0.153 µM in test [9]; 0.0497 µM in test [2]; 0.0376 µM in test [3]; 0.0532 µM in test [4]; 0.0539 µM in test [5]. Moreover, the GI50 in test [6] is < 0.0218 µM and 0.035 µM; in test [7], 0.047 µM; in test [8], 0.0863 µM. Also, the TGI in test [1] was > 34.5 µM and 16.5 µM; in test [2], 7.87 µM and 1.34 µM; in test [3], > 75.4 µM and 17.9 µM; in [5], 2.45 µM and 0.702 µM; in [6], 14.5 µM and 16.9 µM; in test [8], 0.756 µM and 0.413 µM.
Regarding `N#CC1=C(N)OC2=C(COc3ccc(F)cc32)C1c1ccc(Cl)cc1` (centres undefined), the GI50 was 93.4 µM in test [1]; 27.3 µM in test [9]; 30.1 µM in [2]; 34.4 µM in test [3]; 38.3 µM in test [4]; 35.1 µM in [5]. Also, the GI50 in test [6] was 17.2 µM; in [7], 26.6 µM; in test [8] it was 18.5 µM. Besides, the TGI in [1] is > 100 µM; in test [9], 73.5 µM; in [2] it was > 100 µM; in test [3], > 100 µM; in test [4] it was > 100 µM; in test [5] it was > 100 µM. The results for the TGI in [6], in test [7] and in test [8] were 42.3 µM, > 100 µM and 42.6 µM, respectively.
Turning to `Cn1ccc2c(NCCN)c3c(c(NCCN)c21)C(=O)c1ccccc1C3=O`, the GI50 was 2.83 µM in test [1]; 7.62 µM in test [9]; 2.51 µM in test [2]; 2.8 µM in test [3]; 0.35 µM in test [4]; 0.651 µM in [5]. In addition, the GI50 in [6] was 0.795 µM; in [7], 0.455 µM; in [8], 2.17 µM. Moreover, the TGI in test [1] is 12.1 µM; in test [9], 23.7 µM; in test [2], 9.48 µM; in test [3] it was > 32 µM; in test [4], 2.72 µM; in test [5], 2 µM. Also, the values for the TGI in test [6] and in test [8] were 5.37 µM and 5.86 µM, respectively.
For `CC(=O)NC1=C(Nc2ccc(C)cc2)C(=O)c2ccccc2C1=O`, the TGI in test [1] is 29.3 µM; in [2] it was > 75 µM; in [3], 39.3 µM; in [4], 37.6 µM; in [5] it was 21.3 µM; in test [6] it was 45.7 µM. The values for the TGI in test [7] and in test [8] were 31.6 µM and 23 µM, respectively.
For the compound `CN(C)CC(/C(Cc1ccccc1)=N\NC(=O)c1ccncc1)c1ccccc1` (centres undefined), the TGI in [1] is > 100 µM; in [2], > 100 µM; in [4], > 100 µM; in test [5], > 100 µM; in test [6], > 100 µM; in test [7], 51.6 µM. Also, the TGI in [8] was > 100 µM.
Regarding `COc1ccc2nc(-c3ccccc3)cc(Nc3ccc(C(C)=O)cc3)c2c1`, the GI50 in test [1] was 11.9 µM; in [9], 15.3 µM; in [3], 2.25 µM; in test [7], 1.72 µM; in test [8], 2.31 µM. In addition, the TGI amounted to 60.3 µM in test [1]; 37.5 µM in test [9]; 6.11 µM in test [3]; 4.31 µM in test [7]; 5.13 µM in test [8].
As for `CC(=O)OCC1OC(OC2CC3C(C)(C)C(OC(C)=O)CC[C@]3(C)C3CCC45CC4(CC[C@H]5C(C)CC(O)[C@@H](O)C(C)(C)O)[C@]23C)C(O)C(O)C1O` (some centres undefined), the GI50 is 19.9 µM in test [1]; 6.07 µM in test [2]; 12 µM in [3]; 12.1 µM in test [4]; 3.34 µM in test [5]; 2.09 µM in [7]. In test [8], the GI50 was 4.9 µM. Moreover, the TGI was 14.2 µM and 35 µM in test [1]; 13.4 µM and 17.2 µM in [2]; 14 µM and 24.3 µM in test [3]; 11.8 µM and 25.9 µM in test [4]; 13 µM and 11.2 µM in test [5]; 13.3 µM and 19.3 µM in [6]. The TGI in [7] is 6.74 µM and 11.6 µM; in [8], 12.2 µM and 16.5 µM.
Regarding `O=C(Nc1ccc(-n2cc(-c3ccncc3)c(-c3ccc(Cl)c(O)c3)n2)cc1)Nc1cc(C(F)(F)F)cc(C(F)(F)F)c1`, the GI50 in test [1] is 1.93 µM; in test [9], 1.49 µM; in [2], 1.77 µM; in [3], 1.9 µM; in [4], 1.8 µM; in test [5] it was 1.63 µM. The GI50 in [6] is 1.52 µM; in test [8], 2.23 µM. The TGI in [1] came to 4.3 µM; in test [9], 3.22 µM; in test [2] it was 3.57 µM; in test [3] it was 4.3 µM; in test [4], 3.66 µM; in test [5], 3.02 µM. The TGI in test [6] was found to be 2.89 µM; in test [8], 5.37 µM.
